The subject of data set [1] is BMDM. Briefly: Viability of BMDM after 48 h treatment. The data set is classed as cell-based. As to the method:
Immune cells system as macrophages and dendritic cells are responsible for the initiation of immune responses, and are the prime target for immunostimulatory drugs. To verify that the HA-RES conjugate is not toxic for immune cells, BMDM were treated with increasing concentrations of RES or HA-RES for 48 h.
The inventors also tested the effect of BEX and its HA conjugate on the viability of BMDM by exposing them to increasing concentration ranging from (0.39-50 μM).

Data set [2] relates to BMDM. Briefly: BMDM polarization (M1/M2 marker expression). It is filed as cell-based. As to conditions: 48 hr, vs untreated cells. The method, then: To further elucidate the effect of HA-RES and HA-BEX and their combination on macrophage phenotyping the inventors studied their effect on macrophage polarization. BMDMs were treated with different concentrations of RES and HA-RES for 48 hr. (FIG. 6A)
The expression of several markers associated with M1 and M2 phenotypes was evaluated.

The test system of data set [3] is B16F10-Luc melanoma cells. As to the kind of experiment: Cytotoxicity study on B16F10-Luc cells. The data set is classed as cell-based. As to conditions: 48 h. The method, then: (§1) 5×10^3 B16F10-Luc cells were seeded in 96 well plates and allowed to adhere overnight. For establishment for a coculture, B16F10 cells were cocultured with BMDM at a ratio of 1:10 (5×10^3 B16F10: 5×10^4 BMDM per well). The next day, the media was aspirated and replaced with increasing concentration of the free drugs, combination and the HA-conjugates with equivalent free drug concentrations and cells were incubated with the drug solutions for 48 h after which the treatment was aspirated and replaced with 0.5% Xenolight-D-luciferin potassium salt solution in complete DMEM. Finally, cellular viability was assessed by reading the luminescence of the solution from each well after 5 min using BioTek plate reader. Untreated cells were used as controls.

In data set [4] the test system is B16F10-Luc melanoma cells cocultured with BMDM. Briefly: Cytotoxicity study, B16F10-Luc cocultured with BMDM. The data set is classed as cell-based. As to conditions: coculture with BMDM; compared with B16F10 alone. The method, then:
as §1

The test system of the next data set is A431 cells. Briefly: In vitro cytotoxicity on A431 cells. It is filed as cell-based. As to conditions: Homo sapiens, A-431; 48 h, alamar blue. In general terms: Alamar Blue is a resazurin reagent that responds to reducing activity.
The subject of data set [5] is primary human fibroblasts. Briefly: Cell viability study in primary human fibroblasts. It is filed as cell-based. As to conditions: increasing concentrations, 48 h, relative to the untreated control. As to the method:
Primary human fibroblast (seeded at density 5,000 cells/well) and primary human keratinocytes (at density 2,000 cells/well) were used for the cytotoxicity studies in vitro. The culture media used for the keratinocytes was keratinocyte serum free medium supplemented with L-glutamine, EGF and BPE while that for fibroblasts was Dulbecco's Modified Eagle's Medium-high glucose supplemented with 2% penicillin/streptomycin and 5% FBS. Cells were incubated in a humidified incubator under 5% CO2 at 37° C. After 24 h, 50 μL of the media were withdrawn and replaced by 50 ul of increasing concentrations of each treatment reaching a final volume of 100 μL in the well. Cells were incubated for 48 h under standard cell culture conditions after which cell viability was assessed by AB assay as previously described.

For data set [6] the following is noted: background statement; cited from earlier work.

Values after ≈ are worked out from the molar mass of the structure shown.

Protocol for A431 cells: A431 cells were cultured in DMEM media supplemented with 10% FBS, 1% Pen Strep. The cells were passaged 3-4 times prior to setting up the assay. […] Cells were cultured in a humidified incubator maintained at 37° C. and 5% C02 (Thermo scientific, USA). A431 Cells (5×10^3 in 100 ul in complete DMEM) were seeded in 96 well plates and allowed to adhere overnight. The next day, cell culture media was aspirated and replaced with the different treatments. The cells were incubated with the drug solutions for 48 hr after which the treatment was aspirated and replaced with 10% alamar blue (AB) solution in complete DMEM and incubated for an additional 3.5 h in the dark at 37° C. […] Finally, cellular viability was assessed by reading the florescence of the solution from each well at λex=560 nm and λem=590 nm. […] Baseline fluorescence levels from wells without cells were subtracted from each data (Dose response curves were fit to each drug and/or polymer drug conjugate with the median effect model^[28]. For combination treatment, synergy was quantified with the combination index^[29]

Broadly, the IC50 is the point on the concentration scale where inhibition reaches its midpoint. As usually defined, the aqueous solubility is how much of the substance goes into solution per volume. As for `C=C(c1ccc(C(=O)O)cc1)c1cc2c(cc1C)C(C)(C)CCC2(C)C` [BEX, Bexarotene], the “viability of BMDM” value is given as “significant decrease in the cells viability” in the data set on BMDM [1] (50 uM) and “didn't alter the viability” with BMDM [1] (all concentrations tested up to 25 uM (range 0.39-50 μM)). In the data set on BMDM [2], the “expression of CD206 (M2 marker)” value is “significant reduction”. Besides, the 50% inhibitory concentration (IC50) is 25 µM in data set [3] (Mus musculus, B16-F10, luminescence viability) and 60.3 µM with A431 cells. The “IC50 in the presence of MAC” value in data set [4] is listed as “same IC50”. In data set [5], the “viability of primary human dermal fibroblasts” value is “did not significantly affect the cell viability”. The aqueous solubility in data set [6] was roughly 10 µM (≈ 3.48 µg/mL).

For `CCOCc1nc2c(N)nc3ccccc3c2n1CC(C)(C)O` [RES, Resiquimod], the “viability of BMDM” value with BMDM [1] (increasing concentrations, 48 h, all concentrations tested) is reported as “marked increase in cell viability”. For the same compound, the “cytotoxic effect on melanoma cells” value in data set [3] (B16F10-Luc alone) is reported as “negligible cytotoxic effect”.

Consider `O=C(CCCCCCC(=O)Nc1ccccc1)NO` [VOR, Vorinostat], for which the “viability of primary human dermal fibroblasts” value in data set [5] is on record as “did not significantly affect the cell viability”.

The record behind these values is patent US20230102840A1, “COMPOSITIONS AND METHODS RELATING TO COMBINATORIAL HYALURONIC ACID CONJUGATES” (PRESIDENT AND FELLOWS OF HARVARD COLLEGE, priority 2020, published 2023).
